Source: paper PMC2984425, “Safety and pharmacokinetics of novel selective vascular endothelial growth factor receptor-2 inhibitor YN968D1 in patients with advanced malignancies” (BMC Cancer, 2010)
Like-named read-outs stand apart in the source and are kept apart here.

Tests used:
advanced solid tumors = assay: Tumor response by RECIST; type: in vivo, human
Experimental: Patients with measurable disease at baseline were evaluated for tumor response according to the Response Evaluation Criteria for Solid Tumors (RECIST). Radiographic studies (CT scan or MRI) for disease assessment were conducted at baseline and every 2 cycles (8 weeks) thereafter. The best overall response was reported. Disease control rate was defined as the percentage of patients with complete response (CR), partial response (PR), and stable disease (SD) for at least 8 weeks. The duration of overall response was defined as the period from the initial measurement of complete response (CR) or partial response (PR), whichever occurred first, to the first date of documented disease recurrence or progression. The same method and techniques of assessment were used to characterize each identified and reported lesion at baseline and at subsequent evaluations.

[1] = Plasma pharmacokinetics after single and multiple oral doses (LC-MS/MS, non-compartmental analysis); type: in vivo, human; details: for Cmax / half-life / AUC(0-t) / Tmax: human, plasma; for AUC(0-t): read-out: AUC0-24, geometric mean; for Tmax: read-out: tmax, median
Experimental: The phase I study was designed in accordance with the Chinese State Food and Drug Administration (SFDA) recommendations (Guidance for Industry, 2005). PK evaluations were to be performed for single-dosing and multiple-dosing of which the dose levels were determined after completion of dose-escalation. Three dose levels (low, intermediate and high dose) for single-dosing and one dose level (the recommended dose for phase II) for multiple-dosing study, between 8 to 12 participants for each dose levels, were required to meet the SFDA guidance. A cross-over design to evaluate the effects of food intake was incorporated into the single-dosing assessment, also meeting the SFDA requirement, but data will be presented separately. […] Whole blood samples (1 ml) were collected at 0 (predose), 0.5, 1, 2, 3, 4, 6, 8, 12, 24, 32, and 48 hours for single-dosing evaluation and 0, 0.5, 1, 2, 3, 4, 6, 8, 12, and 24 hours (before the next dose) on days 1, 6, 28, and 56 for multiple-dosing evaluation. After the last dose on day 56, two additional samples were collected at 32 and 48 hours for multiple-dosing assessment. Plasma was collected from the blood samples following centrifugation, and stored at -80°C until analysis. […] The PK parameters, including area under the plasma concentration-time curve (AUC), maximum plasma concentration (Cmax), time to maximum concentration (tmax), and elimination half-life (t1/2) were determined by non-compartmental analysis using InnaPhase Kinetica 2000™ (InnaPhase Corp., Philadelphia, PA, USA). The linear-logarithmic trapezoidal method was used to calculate the AUC, and t1/2 λz was calculated by linear regression of the terminal slope of the logarithmic plasma concentration-time profile.

[2] = test system: patients with advanced solid tumors; assay: Phase I dose escalation: MTD and DLT of oral once-daily apatinib; type: in vivo
Experimental: The phase I study was designed in accordance with the Chinese State Food and Drug Administration (SFDA) recommendations (Guidance for Industry, 2005). PK evaluations were to be performed for single-dosing and multiple-dosing of which the dose levels were determined after completion of dose-escalation. Three dose levels (low, intermediate and high dose) for single-dosing and one dose level (the recommended dose for phase II) for multiple-dosing study, between 8 to 12 participants for each dose levels, were required to meet the SFDA guidance. A cross-over design to evaluate the effects of food intake was incorporated into the single-dosing assessment, also meeting the SFDA requirement, but data will be presented separately.
Apatinib was provided by Advenchen Laboratories, LLC (Northridge, CA, USA) as capsule to be administered orally daily. A safe starting dose was determined in accordance with SFDA recommendations (Guidance for Industry 2005) following a previously established maximum-tolerated dose (MTD) in dogs for YN968D1 of above 30 mg/kg. Thus, in compliance with the SFDA's recommendation, the starting dose was determined to be 250 mg/day, corresponding to one-fourth of the MTD in dogs. (ClinicalTrials.gov number: NCT00633490).
Dose-escalation cohorts enrolled three to six patients. Intrapatient dose escalation was not allowed. […]

[3] = po, 500 mg, single oral dose 500 mg, n = 8
[4] = po, 750 mg, multiple oral dose of 750 mg, Day 1, n = 11
[5] = po, 750 mg, multiple oral dose of 750 mg, Day 6, n = 11
[6] = po, 750 mg, multiple oral dose of 750 mg, Day 28, n = 11
[7] = po, 750 mg, multiple oral dose of 750 mg, Day 56, n = 11
[8] = po, 750 mg, single oral dose 750 mg, n = 12
[9] = po, 850 mg, single oral dose 850 mg, n = 8

Q: Which “CR, evaluable patients” value (advanced solid tumors; 250 mg cohort) does the source give for `N#CC1(c2ccc(NC(=O)c3cccnc3NCc3ccncc3)cc2)CCCC1` [apatinib] here?
A: 0

Q: What about the “Disease control (%) CR+PR+SD” value (advanced solid tumors; 250 mg cohort) of the same compound?
A: 66.7%

Q: And the “Disease control CR+PR+SD, patients” value (advanced solid tumors; 250 mg cohort)?
A: 2

Q: And the “PD, evaluable patients” value (advanced solid tumors; 250 mg cohort)?
A: 1

Q: What about the “PR, evaluable patients” value (advanced solid tumors; 250 mg cohort) of the same compound?
A: 1

Q: And the “CR, evaluable patients” value (advanced solid tumors; 500 mg cohort)?
A: 0

Q: What about the “Disease control (%) CR+PR+SD” value (advanced solid tumors; 500 mg cohort) of the same compound?
A: 66.7%

Q: What about the “Disease control CR+PR+SD, patients” value (advanced solid tumors; 500 mg cohort) of the same compound?
A: 6

Q: And the “PD, evaluable patients” value (advanced solid tumors; 500 mg cohort)?
A: 3

Q: What about the “PR, evaluable patients” value (advanced solid tumors; 500 mg cohort) of the same compound?
A: 2

Q: What about the “CR, evaluable patients” value (advanced solid tumors; 750 mg cohort) of the same compound?
A: 0

Q: What about the “Disease control (%) CR+PR+SD” value (advanced solid tumors; 750 mg cohort) of the same compound?
A: 100%

Q: What about the “Disease control CR+PR+SD, patients” value (advanced solid tumors; 750 mg cohort) of the same compound?
A: 11

Q: And the “PD, evaluable patients” value (advanced solid tumors; 750 mg cohort)?
A: 0

Q: And the “PR, evaluable patients” value (advanced solid tumors; 750 mg cohort)?
A: 2

Q: What about the “CR, evaluable patients” value (advanced solid tumors; 850 mg cohort) of the same compound?
A: 0

Q: What about the “Disease control (%) CR+PR+SD” value (advanced solid tumors; 850 mg cohort) of the same compound?
A: 90.9%

Q: And the “Disease control CR+PR+SD, patients” value (advanced solid tumors; 850 mg cohort)?
A: 10

Q: What about the “PD, evaluable patients” value (advanced solid tumors; 850 mg cohort) of the same compound?
A: 1

Q: What about the “PR, evaluable patients” value (advanced solid tumors; 850 mg cohort) of the same compound?
A: 2

Q: What about the “CR, evaluable patients” value (advanced solid tumors; 1000 mg cohort) of the same compound?
A: 0

Q: And the “Disease control (%) CR+PR+SD” value (advanced solid tumors; 1000 mg cohort)?
A: 66.7%

Q: What about the “Disease control CR+PR+SD, patients” value (advanced solid tumors; 1000 mg cohort) of the same compound?
A: 2

Q: And the “PD, evaluable patients” value (advanced solid tumors; 1000 mg cohort)?
A: 1

Q: And the “PR, evaluable patients” value (advanced solid tumors; 1000 mg cohort)?
A: 0

Q: What about the “patients who achieved PR” value (advanced solid tumors; 22 assessable patients with gastric and colorectal cancer) of the same compound?
A: 4

Q: What about the Disease control rate (advanced solid tumors; 22 assessable patients with gastric and colorectal cancer (n = 18)) of the same compound?
A: 81%

Q: What about the “CR, evaluable patients” value (advanced solid tumors; Total, n = 37) of the same compound?
A: 0

Q: What about the “Disease control CR+PR+SD, patients” value (advanced solid tumors; Total, n = 37) of the same compound?
A: 31

Q: And the “PD, evaluable patients” value (advanced solid tumors; Total, n = 37)?
A: 6

Q: And the “Disease control (%) CR+PR+SD, disease control rate” value (advanced solid tumors; Total, n = 37, at 8 weeks)?
A: 83.8%

Q: What about the “Duration of PR” value (advanced solid tumors; one GIST patient who failed imatinib) of the same compound?
A: 24 months

Q: What about the “PR, % of evaluable patients” value (advanced solid tumors; thirty-seven evaluable patients) of the same compound?
A: 18.9%

Q: What about the “time to steady-state conditions” value ([1]; 750 mg once daily, multiple dosing) of the same compound?
A: ≤ 6 days

Q: And the Cmax ([1]; oral, 750 mg, after a single dose of 750 mg, read-out: Cmax values, variation between patients)?
A: 0.926 to 4.62 µg/mL

Q: What about the half-life ([1]; oral, constant over the dose levels 500-850 mg, read-out: elimination half-life of the terminal phase (t1/2 λz) (converted)) of the same compound?
A: 9 h

Q: And the AUC(0-t) [1, 3]?
A: 11.3 µg·h/mL

Q: And the Cmax ([1]; po, 500 mg, single oral dose 500 mg, n = 8, read-out: Cmax, geometric mean)?
A: 1.52 µg/mL

Q: What about the half-life ([1]; po, 500 mg, single oral dose 500 mg, n = 8, read-out: t1/2λz, mean (converted)) of the same compound?
A: 8.1 h

Q: What about the Tmax [1, 3] of the same compound?
A: 3.5 h

Q: What about the AUC(0-t) [1, 4] of the same compound?
A: 19.4 µg·h/mL

Q: What about the Cmax ([1]; po, 750 mg, multiple oral dose of 750 mg, Day 1, n = 11, read-out: Cmax, geometric mean) of the same compound?
A: 2.42 µg/mL

Q: And the half-life ([1]; po, 750 mg, multiple oral dose of 750 mg, Day 1, n = 11, read-out: t1/2λz, mean (converted))?
A: 8.9 h

Q: And the Tmax [1, 4]?
A: 3 h

Q: And the AUC(0-t) [1, 5]?
A: 25.4 µg·h/mL

Q: What about the Cmax ([1]; po, 750 mg, multiple oral dose of 750 mg, Day 6, n = 11, read-out: Cmax, geometric mean) of the same compound?
A: 2.55 µg/mL

Q: What about the half-life ([1]; po, 750 mg, multiple oral dose of 750 mg, Day 6, n = 11, read-out: t1/2λz, mean (converted)) of the same compound?
A: 11 h

Q: And the Tmax [1, 5]?
A: 4 h

Q: What about the AUC(0-t) [1, 6] of the same compound?
A: 19.9 µg·h/mL

Q: And the Cmax ([1]; po, 750 mg, multiple oral dose of 750 mg, Day 28, n = 11, read-out: Cmax, geometric mean)?
A: 2.21 µg/mL

Q: And the half-life ([1]; po, 750 mg, multiple oral dose of 750 mg, Day 28, n = 11, read-out: t1/2λz, mean (converted))?
A: 11.3 h

Q: What about the Tmax [1, 6] of the same compound?
A: 4 h

Q: And the AUC(0-t) [1, 7]?
A: 15.6 µg·h/mL

Q: And the Cmax ([1]; po, 750 mg, multiple oral dose of 750 mg, Day 56, n = 11, read-out: Cmax, geometric mean)?
A: 1.85 µg/mL

Q: What about the half-life ([1]; po, 750 mg, multiple oral dose of 750 mg, Day 56, n = 11, read-out: t1/2λz, mean (converted)) of the same compound?
A: 8.3 h

Q: What about the Tmax [1, 7] of the same compound?
A: 3 h

Q: And the AUC(0-t) [1, 8]?
A: 18.2 µg·h/mL

Q: What about the Cmax ([1]; po, 750 mg, single oral dose 750 mg, n = 12, read-out: Cmax, geometric mean) of the same compound?
A: 2.38 µg/mL

Q: And the half-life ([1]; po, 750 mg, single oral dose 750 mg, n = 12, read-out: t1/2λz, mean (converted))?
A: 9 h

Q: What about the Tmax [1, 8] of the same compound?
A: 3 h

Q: What about the AUC(0-t) [1, 9] of the same compound?
A: 22 µg·h/mL

Q: And the Cmax ([1]; po, 850 mg, single oral dose 850 mg, n = 8, read-out: Cmax, geometric mean)?
A: 2.83 µg/mL

Q: And the half-life ([1]; po, 850 mg, single oral dose 850 mg, n = 8, read-out: t1/2λz, mean (converted))?
A: 9.1 h

Q: And the Tmax [1, 9]?
A: 4 h

Q: What about the “recommended (phase II) dose” value ([2]; human, in vivo, 4 weeks) of the same compound?
A: 750 mg

Q: And the “maximum tolerated dose (MTD)” value ([2]; oral, once daily, patients)?
A: 850 mg
